Assay results from patent US8236810B2, “Substituted 8-aminoalkylthioxanthines, and their use as inhibitors of dipeptidyl peptidase IV” (Sanofi-Aventis Deutschland GmbH, priority 2004, dated 2012).
Where a name gives a salt, the structure may show the parent alone.

Target: T1, DPP-IV from porcine kidney (Sus scrofa, UniProt P22411)
T1 construct: DPP-IV from porcine kidney (Sigma Chemical Co, Munich DE); purchased Sigma Chemical Co, Munich DE; host or cells: porcine kidney (tissue-derived)
Test: Measurement of the DPP-IV activity (fluorimetric H-Ala-Pro-AFC conversion)
Type: biochemical
Details: substrate H-Ala-Pro-AFC 15 μM, DPP-IV 1 mU/ml, Tris/HCl pH 7.4, room temperature
Protocol: a) Measurement of the DPP-IV Activity:
DPP-IV from porcine kidney (Sigma Chemical Co, Munich DE)
H-Ala-Pro-AFC (Bachem Chemical Co, Weil am Rhein DE)
Dipeptidyl peptidase-IV (DPP-IV) (1 mU/ml, final concentration)
H-Ala-Pro-AFC (15 μM, final concentration) in Tris/HCl (40 mM, pH 7.4), total volume 0.2 ml
The reaction was carried out at room temperature for various times (typically 10 min) and stopped at the end of the reaction by adding 20 μl of ZnCl2(1M). The H-Ala-Pro-AFC conversion was determined fluorimetrically by measuring the emission at 535 nm after excitation at 405 nm. When inhibitors were added, the added buffer volume was adapted so that a total volume of 200 μl was maintained for the assay mixture.
IC50 values for inhibitors were determined by varying the inhibitor concentrations with the stated substrate concentration of 15 μM. Ki and Km values were found by appropriate variation of substrate concentration and inhibitor concentration as described (Dixon, M. and Webb, E. C.(1979) Enzymes, third edition, pp. 47-206, Academic Press). The values for Km, IC50 and Ki were calculated using a commercially available software package (Leatherbarrow, R. J. (1992) GraFit Version 3.0, Erithacus Software Ltd. Staines, U.K.).

T1 sequence (P22411 whole entry): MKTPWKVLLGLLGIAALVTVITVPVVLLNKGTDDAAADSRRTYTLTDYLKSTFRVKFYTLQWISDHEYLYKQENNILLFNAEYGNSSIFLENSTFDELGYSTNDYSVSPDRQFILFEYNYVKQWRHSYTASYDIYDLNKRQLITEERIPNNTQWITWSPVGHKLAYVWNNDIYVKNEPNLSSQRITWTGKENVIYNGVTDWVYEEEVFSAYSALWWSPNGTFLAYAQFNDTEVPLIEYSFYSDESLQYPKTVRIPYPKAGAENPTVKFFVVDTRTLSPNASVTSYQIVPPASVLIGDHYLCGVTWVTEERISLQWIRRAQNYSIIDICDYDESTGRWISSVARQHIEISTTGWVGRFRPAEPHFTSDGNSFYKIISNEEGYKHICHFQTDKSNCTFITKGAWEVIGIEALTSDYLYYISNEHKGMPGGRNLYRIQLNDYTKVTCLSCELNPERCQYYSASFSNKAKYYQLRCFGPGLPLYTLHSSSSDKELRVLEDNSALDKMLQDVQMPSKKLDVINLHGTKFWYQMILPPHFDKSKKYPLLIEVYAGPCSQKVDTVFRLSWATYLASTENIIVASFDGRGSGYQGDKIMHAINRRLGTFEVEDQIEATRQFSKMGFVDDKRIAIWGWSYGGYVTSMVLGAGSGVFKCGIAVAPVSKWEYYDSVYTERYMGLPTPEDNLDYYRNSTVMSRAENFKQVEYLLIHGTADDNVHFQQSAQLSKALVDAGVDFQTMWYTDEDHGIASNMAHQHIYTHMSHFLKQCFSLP

Compound | IC50 [nM]
CC(C)=CCn1c(SC2(CN)CCCC2)nc2c1c(=O)n(CC(=O)c1ccccc1)c(=O)n2C [Example 64, 8-(1-Aminomethylcyclopentylsulfanyl)-3-methyl-7-(3-methylbut-2-enyl)-1-(2-oxo-2-phenylethyl)-3,7-dihydropurine-2,6-dione trifluoroacetate] | 7
CC(C)=CCn1c(SC(C)(C)CN)nc2c1c(=O)n(Cc1nnc(C3CC3)s1)c(=O)n2C [Example 12, 8-(2-Amino-1,1-dimethylethylsulfanyl)-1-(5-cyclopropyl-[1,3,4]thiadiazol-2-ylmethyl)-3-methyl-7-(3-methylbut-2-enyl)-3,7-dihydropurine-2,6-dione] | 90
CC(C)=CCn1c(SC(C)(C)CN)nc2c1c(=O)[nH]c(=O)n2C [Example 5, 8-(2-Amino-1,1-dimethylethylsulfanyl)-3-methyl-7-(3-methylbut-2-enyl)-3,7-dihydropurine-2,6-dione] | 84
CC#CCn1c(SC(C)(C)CN)nc2c1c(=O)n(CC(=O)c1ccccc1)c(=O)n2C [Example 26, 8-(2-Amino-1,1-dimethylethylsulfanyl)-7-but-2-ynyl-3-methyl-1-(2-oxo-2-phenylethyl)-3,7-dihydropurine-2,6-dione] | 27
CC(C)=CCn1c(SC(C)(C)CN)nc2c1c(=O)n(CC(=O)c1ccccc1)c(=O)n2C [Example 1, 8-(2-Amino-1,1-dimethylethylsulfanyl)-3-methyl-7-(3-methylbut-2-enyl)-1-(2-oxo-2-phenylethyl)-3,7-dihydropurine-2,6-dione] | 1.7
CC(C)=CCn1c(SCCN)nc2c1c(=O)n(CC(=O)c1ccccc1)c(=O)n2C [Example 3, 8-(2-Aminoethylsulfanyl)-3-methyl-7-(3-methylbut-2-enyl)-1-(2-oxo-2-phenylethyl)-3,7-dihydropurine-2,6-dione] | 72
Cn1c(=O)n(CC(=O)c2ccccc2)c(=O)c2c1nc(SC1(CN)CCCC1)n2Cc1ccccc1 [Example 63, 8-(1-Aminomethylcyclopentylsulfanyl)-7-benzyl-3-methyl-1-(2-oxo-2-phenyl-ethyl)-3,7-dihydropurine-2,6-dione trifluoroacetate] | 14
CC(C)=CCn1c(SC(C)(C)CN)nc2c1c(=O)n(CC(=O)c1ccccc1)c(=O)n2C1CC1 [Example 24, 8-(2-Amino-1,1-dimethylethylsulfanyl)-3-cyclopropyl-7-(3-methylbut-2-enyl) -1-(2-oxo-2-phenylethyl)-3,7-dihydropurine-2,6-dione] | 9.4
CC(C)=CCn1c(SC(C)(C)CN)nc2c1c(=O)n(Cc1cc(C)on1)c(=O)n2C [Example 21, 8-(2-Amino-1,1-dimethylethylsulfanyl)-3-methyl-7-(3-methylbut-2-enyl)-1-(5-methylisoxazol-3-ylmethyl)-3,7-dihydropurine-2,6-dione hydrochloride] | 170
CC(C)=CCn1c(SC(C)(C)CN)nc2c1c(=O)n(CC(=O)c1ccccc1)c(=O)n2CC(F)(F)F [Example 36, 8-(2-Amino-1,1-dimethylethylsulfanyl)-7-(3-methylbut-2-enyl)-1-(2-oxo-2-phenylethyl)-3-(2,2,2-trifluoroethyl)-3,7-dihydropurine-2,6-dione] | 21
CC(C)=CCn1c(SC(C)(C)CN)nc2c1c(=O)n(Cc1nc3cc(F)ccc3s1)c(=O)n2C [Example 19, 8-(2-Amino-1,1-dimethylethylsulfanyl)-1-(5-fluorobenzothiazol-2-ylmethyl) -3-methyl-7-(3-methylbut-2-enyl)-3,7-dihydropurine-2,6-dione] | 24
CC(C)=CCn1c(SC(C)(C)CN)nc2c1c(=O)n(CCc1ccccc1)c(=O)n2C1CC1 [Example 25, 8-(2-Amino-1,1-dimethylethylsulfanyl)-3-cyclopropyl-7-(3-methylbut-2-enyl) -1-phenethyl-3,7-dihydropurine-2,6-dione] | 48
CC(C)=CCn1c(SC(C)(C)CN)nc2c1c(=O)n(CC(=O)c1cccc(Cl)c1)c(=O)n2C [Example 43, 8-(2-Amino-1,1-dimethylethylsulfanyl)-1-[2-(3-chlorophenyl)-2-oxoethyl]-3-methyl-7-(3-methylbut-2-enyl)-3,7-dihydropurine-2,6-dione] | 30
CCn1c(=O)n(CC(=O)c2ccccc2)c(=O)c2c1nc(SC(C)(C)CN)n2CC=C(C)C [Example 23, 8-(2-Amino-1,1-dimethylethylsulfanyl)-3-ethyl-7-(3-methylbut-2-enyl)-1-(2-oxo-2-phenylethyl)-3,7-dihydropurine-2,6-dione] | 4.5
CC(C)=CCn1c(SC(C)(C)CN)nc2c1c(=O)n(CC(=O)c1ccccc1Cl)c(=O)n2C [Example 42, 8-(2-Amino-1,1-dimethylethylsulfanyl)-1-[2-(2-chlorophenyl)-2-oxoethyl]-3-methyl-7-(3-methylbut-2-enyl)-3,7-dihydropurine-2,6-dione] | 16
CC(C)=CCn1c(SCC(C)(C)N)nc2c1c(=O)n(CC(=O)c1ccccc1)c(=O)n2C [Example 10, 8-(2-Amino-2-methylpropylsulfanyl)-3-methyl-7-(3-methylbut-2-enyl)-1-(2-oxo-2-phenylethyl)-3,7-dihydropurine-2,6-dione] | 120
